The results in this text go back to US8822469B2, “Pyrrolo[2,3-B]pyrazines useful as inhibitors of ATR kinase” (Vertex Pharmaceuticals Incorporated, priority 2011, dated 2014).

For the experiment, the target named is T1, full-length ATR (Homo sapiens, UniProt Q13535).
T1 construct: Assays were carried out at 25° C. in the presence of 5 nM full-length ATR
Nature of the experiment: ATR Inhibition Assay (radioactive-phosphate incorporation). It is filed as biochemical. Particulars: Ki(app); 5 nM full-length ATR, 10 μM [γ-33P]ATP, 800 μM target peptide, 25° C. Here is the method: Compounds were screened for their ability to inhibit ATR kinase using a radioactive-phosphate incorporation assay. Assays were carried out in a mixture of 50 mM Tris/HCl (pH 7.5), 10 mM MgCl2 and 1 mM DTT. Final substrate concentrations were 10 μM [γ-33P]ATP (3mCi 33P ATP/mmol ATP, Perkin Elmer) and 800 μM target peptide (ASELPASQPQPFSAKKK).
Assays were carried out at 25° C. in the presence of 5 nM full-length ATR. An assay stock buffer solution was prepared containing all of the reagents listed above, with the exception of ATP and the test compound of interest. 13.5 μL of the stock solution was placed in a 96 well plate followed by addition of 2 μL of DMSO stock containing serial dilutions of the test compound (typically starting from a final concentration of 15 μM with 3-fold serial dilutions) in duplicate (final DMSO concentration 7%). The plate was pre-incubated for 10 minutes at 25° C. and the reaction initiated by addition of 15 μL [γ-33P]ATP (final concentration 10 μM).
The reaction was stopped after […] by the addition of 30 μL 0.1M phosphoric acid containing 2 mM ATP. A multiscreen phosphocellulose filter 96-well plate (Millipore, Cat no. MAPHN0B50) was pretreated with 100 μL 0.2M phosphoric acid prior to the addition of 45 μL of the stopped assay mixture. The plate was washed with 5×200 μL 0.2M phosphoric acid. After drying, 100 μL Optiphase ‘SuperMix’ liquid scintillation cocktail (Perkin Elmer) was added to the well prior to scintillation counting (1450 Microbeta Liquid Scintillation Counter, Wallac).
After removing mean background values for all of the data points, Ki(app) data were calculated from non-linear regression analysis of the initial rate data using the Prism software package (GraphPad Prism version 3.0cx for Macintosh, GraphPad Software, San Diego Calif., USA).

T1 sequence (Q13535 whole entry): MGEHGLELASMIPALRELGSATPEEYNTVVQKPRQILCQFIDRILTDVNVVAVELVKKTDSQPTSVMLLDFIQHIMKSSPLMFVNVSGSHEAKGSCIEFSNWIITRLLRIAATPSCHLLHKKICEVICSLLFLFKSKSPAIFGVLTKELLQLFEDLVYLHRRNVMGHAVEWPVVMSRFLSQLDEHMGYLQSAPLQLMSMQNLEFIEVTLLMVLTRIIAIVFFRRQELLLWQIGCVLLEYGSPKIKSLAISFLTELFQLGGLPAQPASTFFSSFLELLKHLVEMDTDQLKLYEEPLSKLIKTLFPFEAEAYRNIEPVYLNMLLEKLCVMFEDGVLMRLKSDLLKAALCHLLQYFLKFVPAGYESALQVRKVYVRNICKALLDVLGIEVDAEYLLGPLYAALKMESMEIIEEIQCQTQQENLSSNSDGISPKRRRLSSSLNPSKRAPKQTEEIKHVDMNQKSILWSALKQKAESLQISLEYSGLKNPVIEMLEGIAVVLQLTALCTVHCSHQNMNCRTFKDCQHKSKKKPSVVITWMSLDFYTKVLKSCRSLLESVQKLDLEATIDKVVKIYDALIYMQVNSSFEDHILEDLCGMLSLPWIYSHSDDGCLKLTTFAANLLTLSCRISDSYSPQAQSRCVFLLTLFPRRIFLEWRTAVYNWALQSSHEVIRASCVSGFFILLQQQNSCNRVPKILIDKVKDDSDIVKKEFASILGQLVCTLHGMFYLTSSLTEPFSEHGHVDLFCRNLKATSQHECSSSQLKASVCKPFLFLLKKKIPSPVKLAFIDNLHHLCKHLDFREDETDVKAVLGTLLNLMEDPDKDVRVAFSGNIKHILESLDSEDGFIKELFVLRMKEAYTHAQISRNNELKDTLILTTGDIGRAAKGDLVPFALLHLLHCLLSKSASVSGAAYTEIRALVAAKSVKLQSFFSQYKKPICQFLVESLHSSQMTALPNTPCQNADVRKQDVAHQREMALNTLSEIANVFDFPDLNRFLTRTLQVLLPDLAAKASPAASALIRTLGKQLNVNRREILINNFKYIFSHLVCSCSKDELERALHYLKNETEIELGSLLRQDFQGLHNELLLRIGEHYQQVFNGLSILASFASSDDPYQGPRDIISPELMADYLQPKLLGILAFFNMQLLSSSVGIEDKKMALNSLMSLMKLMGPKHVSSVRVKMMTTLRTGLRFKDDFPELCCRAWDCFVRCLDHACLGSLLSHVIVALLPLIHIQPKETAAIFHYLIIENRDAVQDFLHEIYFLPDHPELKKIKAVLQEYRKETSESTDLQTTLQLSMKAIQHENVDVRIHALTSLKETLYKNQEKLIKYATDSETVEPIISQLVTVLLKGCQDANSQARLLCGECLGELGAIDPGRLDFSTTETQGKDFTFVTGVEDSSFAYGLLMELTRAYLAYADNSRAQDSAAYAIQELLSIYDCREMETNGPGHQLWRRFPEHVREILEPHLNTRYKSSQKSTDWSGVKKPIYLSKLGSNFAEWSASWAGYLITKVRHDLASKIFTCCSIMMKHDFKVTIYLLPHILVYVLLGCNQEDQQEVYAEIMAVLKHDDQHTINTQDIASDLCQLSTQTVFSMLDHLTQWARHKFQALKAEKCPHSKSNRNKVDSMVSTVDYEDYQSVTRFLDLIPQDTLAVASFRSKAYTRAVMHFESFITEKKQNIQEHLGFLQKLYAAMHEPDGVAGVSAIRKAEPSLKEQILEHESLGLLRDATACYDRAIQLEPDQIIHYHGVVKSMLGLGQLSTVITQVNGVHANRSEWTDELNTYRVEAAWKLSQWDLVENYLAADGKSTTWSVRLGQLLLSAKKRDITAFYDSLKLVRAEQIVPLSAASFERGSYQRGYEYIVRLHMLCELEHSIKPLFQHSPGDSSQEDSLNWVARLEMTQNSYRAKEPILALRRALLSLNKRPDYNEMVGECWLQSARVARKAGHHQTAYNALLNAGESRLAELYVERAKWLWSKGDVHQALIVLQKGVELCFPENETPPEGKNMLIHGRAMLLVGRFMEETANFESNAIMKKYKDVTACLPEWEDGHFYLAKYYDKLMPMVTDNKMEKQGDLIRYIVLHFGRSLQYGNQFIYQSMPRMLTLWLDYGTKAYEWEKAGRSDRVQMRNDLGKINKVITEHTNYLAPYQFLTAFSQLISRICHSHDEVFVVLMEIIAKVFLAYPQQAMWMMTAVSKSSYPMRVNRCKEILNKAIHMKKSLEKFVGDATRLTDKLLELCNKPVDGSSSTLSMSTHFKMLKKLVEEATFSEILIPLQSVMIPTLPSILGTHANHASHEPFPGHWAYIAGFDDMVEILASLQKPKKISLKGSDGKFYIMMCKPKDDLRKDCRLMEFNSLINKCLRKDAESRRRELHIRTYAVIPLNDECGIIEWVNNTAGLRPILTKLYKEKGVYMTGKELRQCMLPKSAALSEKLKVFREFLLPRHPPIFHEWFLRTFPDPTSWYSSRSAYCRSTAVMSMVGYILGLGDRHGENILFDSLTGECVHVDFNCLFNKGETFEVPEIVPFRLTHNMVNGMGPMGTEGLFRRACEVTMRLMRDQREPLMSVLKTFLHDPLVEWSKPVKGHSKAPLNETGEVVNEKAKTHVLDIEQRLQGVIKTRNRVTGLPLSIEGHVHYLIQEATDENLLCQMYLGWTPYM

Turning to `CC(C)S(=O)(=O)c1ccc(-c2cnc3[nH]cc(NC(=O)c4cccc(CN)c4)c3n2)cc1` [Compound I-12, 3-(aminomethyl)-N-[2-(4-isopropylsulfonylphenyl)-5H-pyrrolo[2,3-b]pyrazin-7-yl]benzamide], the Ki was in the range of 10 to 100 nM. Still for that read-out and setting: the same measure for `CNCc1cccc(C(=O)Nc2c[nH]c3ncc(-c4ccc(S(=O)(=O)C(C)C)cc4)nc23)c1` [Compound I-6, N-[2-(4-isopropylsulfonylphenyl)-5H-pyrrolo[2,3-b]pyrazin-7-yl]-3-(methylaminomethyl)benzamide]: ≤ 10 nM; for `CC(C)S(=O)(=O)c1ccc(-c2cnc3[nH]cc(NC(=O)C4CCNCC4)c3n2)cc1` [Compound I-35, N-[2-(4-isopropylsulfonylphenyl)-5H-pyrrolo[2,3-b]pyrazin-7-yl]piperidine-4-carboxamide]: 10 to 100 nM; for `CC(C)S(=O)(=O)c1ccc(-c2cnc3[nH]cc(NC(=O)c4ccc5c(c4)CNCC5)c3n2)cc1` [Compound I-25, N-[2-(4-isopropylsulfonylphenyl)-5H-pyrrolo[2,3-b]pyrazin-7-yl]-1,2,3,4-tetrahydroisoquinoline-7-carboxamide]: ≤ 10 nM. Still for that read-out and setting: then `CC(C)S(=O)(=O)c1ccc(-c2cnc3[nH]cc(NC(=O)c4ccccc4)c3n2)cc1` [Compound I-1, N-(2-(4-(isopropylsulfonyl)phenyl)-5H-pyrrolo[2,3-b]pyrazin-7-yl)benzamide], with ≤ 10 nM; and `Cc1ccsc1C(=O)Nc1c[nH]c2ncc(-c3ccc(S(=O)(=O)C(C)C)cc3)nc12` [Compound I-32, N-[2-(4-isopropylsulfonylphenyl)-5H-pyrrolo[2,3-b]pyrazin-7-yl]-3-methyl-thiophene-2-carboxamide], with ≤ 10 nM; and `CC(C)S(=O)(=O)c1ccc(-c2cnc3[nH]cc(NC(=O)c4cc5c(s4)CCNC5)c3n2)cc1` [Compound I-26, N-[2-(4-isopropylsulfonylphenyl)-5H-pyrrolo[2,3-b]pyrazin-7-yl]-4,5,6,7-tetrahydrothieno[3,2-c]pyridine-2-carboxamide], with ≤ 10 nM. On to `CC(C)S(=O)(=O)c1ccc(-c2cnc3[nH]cc(NC(=O)c4cccc(Cl)c4)c3n2)cc1` [Compound I-13], for which the Ki lay in the range of 10 to 100 nM.

`CC(C)S(=O)(=O)c1ccc(-c2cnc3[nH]cc(NC(=O)c4cccc(N)c4)c3n2)cc1` [Compound I-2, 3-amino-N-[2-(4-isopropylsulfonylphenyl)-5H-pyrrolo[2,3-b]pyrazin-7-yl]benzamide]: the Ki was ≤ 10 nM. On to `CC(C)S(=O)(=O)c1ccc(-c2cnc3[nH]cc(NC(=O)c4ccc(NC5CNC5)cc4)c3n2)cc1` [Compound I-30, 4-(azetidin-3-ylamino)-N-[2-(4-isopropylsulfonylphenyl)-5H-pyrrolo[2,3-b]pyrazin-7-yl]benzamide], for which the Ki is ≤ 10 nM. On the same count and under the same terms, the same measure for `COc1cccc(C(=O)Nc2c[nH]c3ncc(-c4ccc(S(=O)(=O)C(C)C)cc4)nc23)n1` [Compound I-31, N-[2-(4-isopropylsulfonylphenyl)-5H-pyrrolo[2,3-b]pyrazin-7-yl]-6-methoxy-pyridine-2-carboxamide]: 10 to 100 nM; for `CC(C)S(=O)(=O)c1ccc(-c2cnc3[nH]cc(NS(=O)(=O)c4ccccc4)c3n2)cc1` [Compound I-19]: 100 to 500 nM; for `CC(C)S(=O)(=O)c1ccc(-c2cnc3[nH]cc(NC(=O)CC4CC4)c3n2)cc1` [Compound I-33, 2-cyclopropyl-N-[2-(4-isopropylsulfonylphenyl)-5H-pyrrolo[2,3-b]pyrazin-7-yl]acetamide]: 10 to 100 nM. As for `CC(C)C(=O)Nc1c[nH]c2ncc(-c3ccc(S(=O)(=O)C(C)C)cc3)nc12` [Compound I-9, N-(2-(4-(isopropylsulfonyl)phenyl)-5H-pyrrolo[2,3-b]pyrazin-7-yl)isobutyramide], the Ki lay within 100 to 500 nM. Consider `CC(C)S(=O)(=O)c1ccc(-c2cnc3[nH]cc(NC(=O)c4ccc(N5CCC(N)CC5)cc4)c3n2)cc1` [Compound I-20, 4-(4-amino-1-piperidyl)-N-[2-(4-isopropylsulfonylphenyl)-5H-pyrrolo[2,3-b]pyrazin-7-yl]benzamide], for which the Ki lay in the range of 10 to 100 nM. For the compound `COc1ccccc1C(=O)Nc1c[nH]c2ncc(-c3ccc(S(=O)(=O)C(C)C)cc3)nc12` [Compound I-11, N-[2-(4-isopropylsulfonylphenyl)-5H-pyrrolo[2,3-b]pyrazin-7-yl]-2-methoxy-benzamide], the “ATR Inhibition Ki” value was “none”. Regarding `CC(C)S(=O)(=O)c1ccc(-c2cnc3[nH]cc(NC(=O)c4ccc(N5CCC[C@@H](N)C5)cc4)c3n2)cc1` [Compound I-23, 4-[(3R)-3-amino-1-piperidyl]-N-[2-(4-isopropylsulfonylphenyl)-5H-pyrrolo[2,3-b]pyrazin-7-yl]benzamide], the Ki is ≤ 10 nM. Turning to `CC(C)S(=O)(=O)c1ccc(-c2cnc3[nH]cc(NC(=O)Cc4nnn[nH]4)c3n2)cc1` [Compound I-38, N-[2-(4-isopropylsulfonylphenyl)-5H-pyrrolo[2,3-b]pyrazin-7-yl]-2-(1H-tetrazol-5-yl)acetamide], the Ki is 10 to 100 nM.

As to `CC(C)S(=O)(=O)c1ccc(-c2cnc3[nH]cc(NC(=O)c4ccc(CN[C@H]5CCOC5)cc4)c3n2)cc1` [Compound I-5, N-[2-(4-isopropylsulfonylphenyl)-5H-pyrrolo[2,3-b]pyrazin-7-yl]-4-[[[(3S)-tetrahydrofuran-3-yl]amino]methyl]benzamide], the Ki is ≤ 10 nM. Still for that read-out and setting: the same measure for `CC(C)S(=O)(=O)c1ccc(-c2cnc3[nH]cc(NC(=O)c4cc5c(s4)CNCC5)c3n2)cc1` [Compound I-27, N-[2-(4-isopropylsulfonylphenyl)-5H-pyrrolo[2,3-b]pyrazin-7-yl]-4,5,6,7-tetrahydrothieno[2,3-c]pyridine-2-carboxamide]: ≤ 10 nM; for `CC(C)S(=O)(=O)c1ccc(-c2cnc3[nH]cc(NC(=O)c4cccc(C5CNCCN5)c4)c3n2)cc1` (stereo not shown) [Compound I-21, N-[2-(4-isopropylsulfonylphenyl)-5H-pyrrolo[2,3-b]pyrazin-7-yl]-3-piperazin-2-yl-benzamide]: 10 to 100 nM. As for `CC(C)S(=O)(=O)c1ccc(-c2cnc3[nH]cc(NC(=O)CC#N)c3n2)cc1` [Compound I-37, 2-cyano-N-[2-(4-isopropylsulfonylphenyl)-5H-pyrrolo[2,3-b]pyrazin-7-yl]acetamide], the Ki lay in the range of 10 to 100 nM. With `CC(C)S(=O)(=O)c1ccc(-c2cnc3[nH]cc(NC(=O)c4ccc(N5CCC[C@H](N)C5)cc4)c3n2)cc1` [Compound I-42, 4-[(3S)-3-amino-1-piperidyl]-N-[2-(4-isopropylsulfonylphenyl)-5H-pyrrolo[2,3-b]pyrazin-7-yl]benzamide], the Ki was in the range of 10 to 100 nM. Regarding `CC(C)S(=O)(=O)c1ccc(-c2cnc3[nH]cc(NC(=O)c4ccc(N)cc4)c3n2)cc1` [Compound I-3, 4-amino-N-[2-(4-isopropylsulfonylphenyl)-5H-pyrrolo[2,3-b]pyrazin-7-yl]benzamide], the Ki fell in the range of 10 to 100 nM. With `CC(C)S(=O)(=O)c1ccc(-c2cnc3[nH]cc(NC(=O)c4ccncc4)c3n2)cc1` [Compound I-17, N-[2-(4-isopropylsulfonylphenyl)-5H-pyrrolo[2,3-b]pyrazin-7-yl]pyridine-4-carboxamide], the Ki fell in the range of 10 to 100 nM. On to `CC(C)S(=O)(=O)c1ccc(-c2cnc3[nH]cc(NC(=O)c4ccccc4F)c3n2)cc1` [Compound I-15, 2-fluoro-N-[2-(4-isopropylsulfonylphenyl)-5H-pyrrolo[2,3-b]pyrazin-7-yl]benzamide], for which the Ki fell in the range of 10 to 100 nM. For the compound `CC(C)S(=O)(=O)c1ccc(-c2cnc3[nH]cc(NC(=O)COc4ccccc4)c3n2)cc1` [Compound I-39, N-[2-(4-isopropylsulfonylphenyl)-5H-pyrrolo[2,3-b]pyrazin-7-yl]-2-phenoxy-acetamide], the Ki was 100 to 500 nM. On the same count and under the same terms, then `CC(C)S(=O)(=O)c1ccc(-c2cnc3[nH]cc(NC(=O)c4ccc(OCCN(C)C)cc4)c3n2)cc1` [Compound I-29, 4-(2-dimethylaminoethyloxy)-N-[2-(4-isopropylsulfonylphenyl)-5H-pyrrolo[2,3-b]pyrazin-7-yl]benzamide], with ≤ 10 nM; and `CC(C)S(=O)(=O)c1ccc(-c2cnc3[nH]cc(NC(=O)c4ccccc4O)c3n2)cc1` [Compound I-14, 2-hydroxy-N-(2-(4-(isopropylsulfonyl)phenyl)-5H-pyrrolo[2,3-b]pyrazin-7-yl)benzamide], with ≤ 10 nM. Regarding `CC(C)S(=O)(=O)c1ccc(-c2cnc3[nH]cc(NC(=O)c4ccc(C5CCCN5)cc4)c3n2)cc1` (stereo not shown) [Compound I-28, N-[2-(4-isopropylsulfonylphenyl)-5H-pyrrolo[2,3-b]pyrazin-7-yl]-4-pyrrolidin-2-yl-benzamide], the Ki was ≤ 10 nM. `CC(C)S(=O)(=O)c1ccc(-c2cnc3[nH]cc(NC(=O)Nc4ccccc4)c3n2)cc1` [Compound I-43, 1-[2-(4-isopropylsulfonylphenyl)-5H-pyrrolo[2,3-b]pyrazin-7-yl]-3-phenyl-urea]: the Ki fell in the range of 10 to 100 nM.
